From US20230278972A1, “SUBSTITUTED HALOALKYL SULFONANILIDE HERBICIDES” (FMC Corporation, priority 2020, published 2023)

What was measured:
Type in all cases: in vivo
[1] = tested on: Foxtail, Giant (giant foxtail, Setaria faberi); assay: Test A postemergence, Foxtail, Giant; conditions: Postemergence, 0 to 100 scale (0 no effect, 100 complete control); for Foxtail, Giant plant response rating: 500 g ai/ha, visual injury vs untreated controls after approx. 10 days
Procedure, shortened: (§1)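 Preemergence: seeded pots of loam plus sand received a directed soil spray. Postemergence: seedlings at one to two leaves, 2 to 10 cm high, were oversprayed. Each compound was formulated in a non-phytotoxic solvent mix that included a surfactant.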

[2] = tested on: Ryegrass, Italian (Italian ryegrass, Lolium multiflorum); assay: Test A postemergence, Ryegrass, Italian; conditions: Postemergence, 0 to 100 scale (0 no effect, 100 complete control); for Ryegrass, Italian plant response rating: 500 g ai/ha, visual injury vs untreated controls after approx. 10 days
Procedure, shortened: as §1

[3] = tested on: Foxtail, Giant (giant foxtail, Setaria faberi); assay: Test A preemergence, Foxtail, Giant; conditions: Preemergence; for Foxtail, Giant plant response rating: visual injury on 0 to 100 scale (0 no effect, 100 complete control), approximately 10 days; for Plant response rating, Foxtail, Giant: 0 to 100 scale (0 no effect, 100 complete control)
Procedure, shortened: as §1

[4] = tested on: pigweed (Amaranthus retroflexus); assay: Test A preemergence, pigweed; conditions: for Pigweed plant response rating: visual injury on 0 to 100 scale (0 no effect, 100 complete control), approximately 10 days; for Plant response rating, Pigweed: 0 to 100 scale (0 no effect, 100 complete control)
Procedure, shortened: (§2)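 Postemergence ratings come from foliar sprays onto one- to two-leaf plants of 2 to 10 cm grown in loam/sand; preemergence ratings come from a directed spray onto the soil of newly seeded pots. Formulation was a surfactant-containing non-phytotoxic solvent blend.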

[5] = tested on: corn (Zea mays); assay: Test A postemergence, corn; conditions: Postemergence, 0 to 100 scale (0 no effect, 100 complete control); for Corn plant response rating: 500 g ai/ha, visual injury vs untreated controls after approx. 10 days
Procedure, shortened: as §1

[6] = tested on: pigweed (Amaranthus retroflexus); assay: Test A postemergence, pigweed; conditions: Postemergence, 0 to 100 scale (0 no effect, 100 complete control); for Pigweed plant response rating: 500 g ai/ha, visual injury vs untreated controls after approx. 10 days
Procedure, shortened: as §1

[7] = tested on: wheat (Triticum aestivum); assay: Test A postemergence, wheat; conditions: Postemergence, 0 to 100 scale (0 no effect, 100 complete control); for Wheat plant response rating: 500 g ai/ha, visual injury vs untreated controls after approx. 10 days
Procedure, shortened: as §2

[8] = tested on: Ryegrass, Italian (Italian ryegrass, Lolium multiflorum); assay: Test A preemergence, Ryegrass, Italian; conditions: Preemergence; for Ryegrass, Italian plant response rating: visual injury on 0 to 100 scale (0 no effect, 100 complete control), approximately 10 days; for Plant response rating, Ryegrass, Italian: 0 to 100 scale (0 no effect, 100 complete control)
Procedure, shortened: as §1

[9] = tested on: barnyardgrass (Echinochloa crus-galli); assay: Test A preemergence, barnyardgrass; conditions: Preemergence; for Barnyardgrass plant response rating: visual injury on 0 to 100 scale (0 no effect, 100 complete control), approximately 10 days; for Plant response rating, Barnyardgrass: 0 to 100 scale (0 no effect, 100 complete control)
Procedure, shortened: as §1

[10] = tested on: barnyardgrass (Echinochloa crus-galli); assay: Test A postemergence, barnyardgrass; conditions: Postemergence, 0 to 100 scale (0 no effect, 100 complete control); for Barnyardgrass plant response rating: 500 g ai/ha, visual injury vs untreated controls after approx. 10 days
Procedure, shortened: as §2

[11] = tested on: kochia (Bassia scoparia); assay: Test A postemergence, kochia; conditions: Postemergence, 0 to 100 scale (0 no effect, 100 complete control); for Kochia plant response rating: 500 g ai/ha, visual injury vs untreated controls after approx. 10 days
Procedure, shortened: as §1

[12] = tested on: galium (catchweed bedstraw, Galium aparine); assay: Test A postemergence, galium; conditions: Postemergence, 0 to 100 scale (0 no effect, 100 complete control); for Galium plant response rating: 500 g ai/ha, visual injury vs untreated controls after approx. 10 days
Procedure, shortened: as §2

[13] = tested on: kochia (Bassia scoparia); assay: Test A preemergence, kochia; conditions: Preemergence; for Kochia plant response rating: visual injury on 0 to 100 scale (0 no effect, 100 complete control), approximately 10 days; for Plant response rating, Kochia: 0 to 100 scale (0 no effect, 100 complete control)
Procedure, shortened: as §1

[14] = tested on: blackgrass (Alopecurus myosuroides); assay: Test A postemergence, blackgrass; conditions: Postemergence, 0 to 100 scale (0 no effect, 100 complete control); for Blackgrass plant response rating: 500 g ai/ha, visual injury vs untreated controls after approx. 10 days
Procedure, shortened: as §1

[15] = tested on: ragweed (common ragweed, Ambrosia artemisiifolia); assay: Test A preemergence, ragweed; conditions: Preemergence; for Ragweed plant response rating: visual injury on 0 to 100 scale (0 no effect, 100 complete control), approximately 10 days; for Plant response rating, Ragweed: 0 to 100 scale (0 no effect, 100 complete control)
Procedure, shortened: as §1

[16] = tested on: ragweed (common ragweed, Ambrosia artemisiifolia); assay: Test A postemergence, ragweed; conditions: Postemergence, 0 to 100 scale (0 no effect, 100 complete control); for Ragweed plant response rating: 500 g ai/ha, visual injury vs untreated controls after approx. 10 days
Procedure, shortened: as §1

[17] = 125 g ai/ha, visual injury approx. 10 days
[18] = 31 g ai/ha, visual injury, approx. 10 days
[19] = 125 g ai/ha, visual injury, approx. 10 days

In the case of `COc1cnn(C)c(=O)c1-c1cc(NS(=O)(=O)C(F)(F)F)c(C)cc1C` [Compound 65], the “Plant response rating, Foxtail, Giant” value [1, 17] is reported as 0, the “Foxtail, Giant plant response rating” value [1] is reported as 40 and the “Plant response rating, Ryegrass, Italian” value [2, 17] is reported as 0. For the same molecule, the “Ryegrass, Italian plant response rating” value [2] was 0, the “Foxtail, Giant plant response rating” value ([3]; 125 g ai/ha) was 80 and the “Plant response rating, Foxtail, Giant” value ([3]; 500 g ai/ha) was 100. For the same molecule, the “Pigweed plant response rating” value ([4]; 125 g ai/ha) was 0, the “Plant response rating, Pigweed” value ([4]; 500 g ai/ha) was 30 and the “Plant response rating, Corn” value [5, 17] was 0. For the same molecule, the “Corn plant response rating” value [5] was 0, the “Plant response rating, Pigweed” value [6, 17] was 0 and the “Pigweed plant response rating” value [6] was 0. The “Plant response rating, Wheat” value [7, 17] was 0, the “Wheat plant response rating” value [7] was 50 and the “Ryegrass, Italian plant response rating” value ([8]; 125 g ai/ha) was 30. For the same molecule, the “Plant response rating, Ryegrass, Italian” value ([8]; 500 g ai/ha) was 60, the “Barnyardgrass plant response rating” value ([9]; 125 g ai/ha) was 0 and the “Plant response rating, Barnyardgrass” value ([9]; 500 g ai/ha) was 90. The “Plant response rating, Barnyardgrass” value [10, 17] was 0, the “Barnyardgrass plant response rating” value [10] was 70 and the “Plant response rating, Kochia” value [11, 17] was 0. For the same molecule, the “Kochia plant response rating” value [11] was 0, the “Plant response rating, Galium” value [12, 17] was 0 and the “Galium plant response rating” value [12] was 30. For the same molecule, the “Kochia plant response rating” value ([13]; 125 g ai/ha) was 0, the “Plant response rating, Kochia” value ([13]; 500 g ai/ha) was 60 and the “Plant response rating, Blackgrass” value [14, 17] was 0. The “Blackgrass plant response rating” value [14] was 0, the “Ragweed plant response rating” value ([15]; 125 g ai/ha) was 0 and the “Plant response rating, Ragweed” value ([15]; 500 g ai/ha) was 0. For the same molecule, the “Plant response rating, Ragweed” value [16, 17] was 0 and the “Ragweed plant response rating” value [16] was 0.

`COC1CCCN(C(=O)c2cc(NS(=O)(=O)C(F)(F)F)c(C)c(F)c2C)C1` (stereo not drawn) [Compound 98] was tested, and the “Plant response rating, Foxtail, Giant” value ([1]; 31 g ai/ha) was 0, the “Plant response rating, Foxtail, Giant” value [1, 17] was 20 and the “Plant response rating, Ryegrass, Italian” value ([2]; 31 g ai/ha) was 30. The “Plant response rating, Ryegrass, Italian” value [2, 17] was 30, the “Plant response rating, Foxtail, Giant” value [3, 18] was 80 and the “Foxtail, Giant plant response rating” value ([3]; 125 g ai/ha) was 100. The “Plant response rating, Pigweed” value [4, 18] was 70, the “Pigweed plant response rating” value ([4]; 125 g ai/ha) was 100 and the “Plant response rating, Corn” value ([5]; 31 g ai/ha) was 0. For the same molecule, the “Plant response rating, Corn” value [5, 17] was 10, the “Plant response rating, Pigweed” value ([6]; 31 g ai/ha) was 30 and the “Plant response rating, Pigweed” value [6, 17] was 80. For the same molecule, the “Plant response rating, Wheat” value ([7]; 31 g ai/ha) was 0, the “Plant response rating, Wheat” value [7, 17] was 40 and the “Plant response rating, Ryegrass, Italian” value [8, 18] was 30. The “Ryegrass, Italian plant response rating” value ([8]; 125 g ai/ha) was 50, the “Plant response rating, Barnyardgrass” value [9, 18] was 0 and the “Barnyardgrass plant response rating” value ([9]; 125 g ai/ha) was 90. For the same molecule, the “Plant response rating, Barnyardgrass” value ([10]; 31 g ai/ha) was 0, the “Plant response rating, Barnyardgrass” value [10, 17] was 50 and the “Plant response rating, Kochia” value ([11]; 31 g ai/ha) was 10. For the same molecule, the “Plant response rating, Kochia” value [11, 17] was 20, the “Plant response rating, Galium” value ([12]; 31 g ai/ha) was 60 and the “Plant response rating, Galium” value [12, 17] was 90. For the same molecule, the “Plant response rating, Kochia” value [13, 18] was 40, the “Kochia plant response rating” value ([13]; 125 g ai/ha) was 40 and the “Plant response rating, Blackgrass” value ([14]; 31 g ai/ha) was 20. The “Plant response rating, Blackgrass” value [14, 17] was 0, the “Plant response rating, Ragweed” value [15, 18] was 30 and the “Ragweed plant response rating” value ([15]; 125 g ai/ha) was 80. For the same molecule, the “Plant response rating, Ragweed” value ([16]; 31 g ai/ha) was 50 and the “Plant response rating, Ragweed” value [16, 17] was 60.

For `Cc1cc(C)c(C(=O)N2CCC3(CCCC3)CC2)cc1NS(=O)(=O)C(F)(F)F` [Compound 223], the “Plant response rating, Foxtail, Giant” value ([1]; 125 g ai/ha) was 0, the “Foxtail, Giant plant response rating” value [1] was 0 and the “Plant response rating, Ryegrass, Italian” value ([2]; 125 g ai/ha) was 0. For the same molecule, the “Ryegrass, Italian plant response rating” value [2] was 0, the “Plant response rating, Foxtail, Giant” value [3, 19] was 60 and the “Plant response rating, Foxtail, Giant” value ([3]; 500 g ai/ha) was 100. The “Plant response rating, Pigweed” value [4, 19] was 10, the “Plant response rating, Pigweed” value ([4]; 500 g ai/ha) was 90 and the “Plant response rating, Corn” value ([5]; 125 g ai/ha) was 0. The “Corn plant response rating” value [5] was 0, the “Plant response rating, Pigweed” value ([6]; 125 g ai/ha) was 40 and the “Pigweed plant response rating” value [6] was 30. For the same molecule, the “Plant response rating, Wheat” value ([7]; 125 g ai/ha) was 0, the “Wheat plant response rating” value [7] was 0 and the “Plant response rating, Ryegrass, Italian” value [8, 19] was 30. For the same molecule, the “Plant response rating, Ryegrass, Italian” value ([8]; 500 g ai/ha) was 80, the “Plant response rating, Barnyardgrass” value [9, 19] was 30 and the “Plant response rating, Barnyardgrass” value ([9]; 500 g ai/ha) was 50. The “Plant response rating, Barnyardgrass” value ([10]; 125 g ai/ha) was 10, the “Barnyardgrass plant response rating” value [10] was 20 and the “Plant response rating, Kochia” value ([11]; 125 g ai/ha) was 0. The “Kochia plant response rating” value [11] was 0, the “Plant response rating, Galium” value ([12]; 125 g ai/ha) was 40 and the “Galium plant response rating” value [12] was 40. The “Plant response rating, Kochia” value [13, 19] was 0, the “Plant response rating, Kochia” value ([13]; 500 g ai/ha) was 20 and the “Plant response rating, Blackgrass” value ([14]; 125 g ai/ha) was 20. For the same molecule, the “Blackgrass plant response rating” value [14] was 0, the “Plant response rating, Ragweed” value [15, 19] was 0 and the “Plant response rating, Ragweed” value ([15]; 500 g ai/ha) was 50. For the same molecule, the “Plant response rating, Ragweed” value ([16]; 125 g ai/ha) was 0 and the “Ragweed plant response rating” value [16] was 20.
